Data from patent publication EP4729615A1, “SIRNA TARGETING MMP7, SIRNA CONJUGATE AND MEDICAL USE THEREOF” (Tuojie Biotech (Shanghai) Co., Ltd., priority 2023, dated 2024).
Strand notation (5' to 3'): a small letter for the sugar, then the base; units joined by * are phosphorothioate-linked, units joined directly phosphodiester-linked; [ ] holds rarer units or linkages, { } end groups; capitals alone tell only the bases. {I-14} = ligand I-14 conjugated at sense 5' end; m = 2'-O-methyl; f = 2'-fluoro

Columns and labels:
[1] = molecular target: human recombinant αvβ6 protein (Homo sapiens, UniProt P06756+P18564); assay: fluorescence polarization (FP) binding assay with fluorescent RGD peptide; settings: 12 concentration points, highest 10 µM, 3-fold serial dilution
Experimental: The specific assay method is as follows: • 3.5 µL of test compound I-12 was added to a 384-well black plate. For the test compound, 12 concentration points were set up. The highest concentration was 10 µM, and 3-fold serial dilution was performed. DMSO control wells were used to determine the maximum signal, and 500 nM compound CWHM-12 (MCE, HY-18644) control wells were used as the minimum signal. Then, 3.5 µL of 4× human recombinant αvβ6 protein working solution was added. After incubation at room temperature for 15 min, 7 µL of 2× fluorescent RGD peptide solution was added to each well. The plate was incubated at room temperature for 1 h, and then FP signals were read using Envision. Using GraphPad Prism, the inhibition curve fitting was performed, and the IC50 value was calculated. The IC50 value (Z prime > 0.5) was calculated using the following formula: Y = Bottom + (Top−Bottom)/(1+10^(∧)((LogIC50−X)×HillSlope)) [formula] • X: Log inhibitor concentration; Y: inhibition rate %.

MMP7 mRNA = assay: on-target activity of siRNA conjugates at 2 endogenous concentration points in HCC38 cells, Q-PCR (Example 10); type: cell-based, human; settings: 24 h after transfection; for 2 nM remaining expression (%): siRNA conjugate 2 nM; for 10 nM remaining expression (%): siRNA conjugate 10 nM
Experimental: The siRNA conjugates were subjected to an in vitro molecular-level activity screening in HCC38 cells using 2 concentration gradients.
HCC38 cells were cultured at 37 °C with 5% CO2 in a 1640 culture medium containing 10% fetal bovine serum. 24 h prior to transfection, the HCC38 cells were seeded into a 96-well plate at a density of 1.5 × 10^4 cells per well, with each well containing 100 µL of the culture medium.
The cells were transfected with the siRNA conjugates using Lipofectamine RNAi Max (Invitrogen, 13778-150) according to the instructions. 0.3 µL of Lipofectamine RNAi Max was used for each well. A total of 2 concentration points were set for the siRNA conjugates, i.e., 10 nM and 2 nM, respectively. 24 h after transfection, RNA was extracted for Q-PCR to detect the activity of the siRNA conjugates. […] Table 9. Activity results of siRNA conjugates at 2 concentration points at the HCC38 cellular level

Sequence of human recombinant αvβ6 protein (P06756 31-992 limits assumed): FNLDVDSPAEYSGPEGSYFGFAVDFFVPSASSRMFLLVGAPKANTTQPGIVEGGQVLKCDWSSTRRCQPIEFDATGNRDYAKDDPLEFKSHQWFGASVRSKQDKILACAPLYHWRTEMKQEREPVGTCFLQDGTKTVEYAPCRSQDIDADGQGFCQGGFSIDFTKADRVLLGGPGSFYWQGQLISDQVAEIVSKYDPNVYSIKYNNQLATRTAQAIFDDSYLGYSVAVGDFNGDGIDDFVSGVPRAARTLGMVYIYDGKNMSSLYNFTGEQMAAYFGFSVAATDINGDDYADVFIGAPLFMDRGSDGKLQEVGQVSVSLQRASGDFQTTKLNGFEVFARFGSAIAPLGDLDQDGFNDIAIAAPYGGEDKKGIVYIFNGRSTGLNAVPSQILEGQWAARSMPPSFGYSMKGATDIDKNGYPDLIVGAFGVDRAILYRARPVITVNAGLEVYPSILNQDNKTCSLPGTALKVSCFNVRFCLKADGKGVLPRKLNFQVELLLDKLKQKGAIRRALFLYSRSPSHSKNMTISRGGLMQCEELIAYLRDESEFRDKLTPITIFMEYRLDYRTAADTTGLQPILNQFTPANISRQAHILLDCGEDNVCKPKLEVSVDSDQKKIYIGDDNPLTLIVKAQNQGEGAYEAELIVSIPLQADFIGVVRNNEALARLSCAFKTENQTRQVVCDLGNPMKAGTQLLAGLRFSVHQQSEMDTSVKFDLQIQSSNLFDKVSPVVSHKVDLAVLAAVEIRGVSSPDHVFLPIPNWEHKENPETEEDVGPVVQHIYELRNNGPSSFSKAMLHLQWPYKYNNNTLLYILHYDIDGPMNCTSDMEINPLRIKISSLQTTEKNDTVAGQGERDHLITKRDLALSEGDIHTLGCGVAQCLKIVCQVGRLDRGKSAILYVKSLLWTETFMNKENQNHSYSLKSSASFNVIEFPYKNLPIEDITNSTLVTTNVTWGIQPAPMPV
Sequence of human recombinant αvβ6 protein (P18564 22-707 limits assumed): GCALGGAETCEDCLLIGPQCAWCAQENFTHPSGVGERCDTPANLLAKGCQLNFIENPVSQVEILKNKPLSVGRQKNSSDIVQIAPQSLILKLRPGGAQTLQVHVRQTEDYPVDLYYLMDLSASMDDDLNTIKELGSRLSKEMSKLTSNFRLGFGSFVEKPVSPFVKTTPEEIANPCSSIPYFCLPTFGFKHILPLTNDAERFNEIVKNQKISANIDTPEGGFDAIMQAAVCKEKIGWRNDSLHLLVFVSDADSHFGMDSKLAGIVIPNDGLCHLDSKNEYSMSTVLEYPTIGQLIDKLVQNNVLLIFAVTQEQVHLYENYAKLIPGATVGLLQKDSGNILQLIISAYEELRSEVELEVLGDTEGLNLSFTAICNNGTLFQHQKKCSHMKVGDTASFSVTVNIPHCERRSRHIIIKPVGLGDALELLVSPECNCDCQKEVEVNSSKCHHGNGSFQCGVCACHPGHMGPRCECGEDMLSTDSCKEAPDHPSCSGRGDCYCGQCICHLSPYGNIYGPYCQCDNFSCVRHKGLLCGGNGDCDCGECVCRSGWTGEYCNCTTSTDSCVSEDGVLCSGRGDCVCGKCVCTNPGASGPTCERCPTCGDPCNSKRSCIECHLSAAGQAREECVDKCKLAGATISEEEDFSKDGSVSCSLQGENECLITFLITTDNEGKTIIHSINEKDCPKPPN

Compound | IC50 [1] [nM] | 2 nM remaining expression (%) (MMP7 mRNA) | 10 nM remaining expression (%) (MMP7 mRNA)
[N-]=[N+]=NCCOCCOCCOCCOCCOc1ccc(-c2ccc([C@H](CC(=O)O)NC(=O)CNC(=O)CCCNc3cc4ccccc4cn3)cc2)c2ccccc12 [I-12] | 79.9 |  | 
TJR103312: siRNA conjugate containing I-14; SS SEQ ID NO 28 (I-14UmsGmsGmGmUmAmGfAfUfGmUmCmAmAmUmAmAmAmUm), AS SEQ ID NO 58 (sense {I-14}-mU*mG*mGmGmUmAfGfAfUmGmUmCmAmAmUmAmAmAmU; antisense AUUUAUUGACAUCUACCCACU; antisense: chemistry not given here) |  | 11.35 | 8.20
TJR103313: siRNA conjugate containing I-14; SS SEQ ID NO 29 (I-14UmsGmsAmCmUmCmAfGfAfAmAmCmAmAmAmAmAmAmUm), AS SEQ ID NO 59 (sense {I-14}-mU*mG*mAmCmUmCfAfGfAmAmAmCmAmAmAmAmAmAmU; antisense AUUUUUUGUUUCUGAGUCAUA; antisense: chemistry not given here) |  | 8.05 | 4.23
TJR103314: siRNA conjugate containing I-14; SS SEQ ID NO 30 (I-14AmsUmsUmCmAmAmGfAfAfAmGmAmAmAmUmAmGmAmAm), AS SEQ ID NO 60 (sense {I-14}-mA*mU*mUmCmAmAfGfAfAmAmGmAmAmAmUmAmGmAmA; antisense UUCUAUUUCUUUCUUGAAUUA; antisense: chemistry not given here) |  | 14.73 | 8.03
